Data: PubChem BioAssay AID248 (DTP/NCI, 2004)
Toxic doses and inconclusive results are not listed. Cut-off read from the data, not from the text of the source: active = T/C of 150% or more; inactive = T/C below 125%.

Tested on: L1210 leukemia ip in BDF1 mice, survival T/C
Test: NCI In Vivo Anticancer Drug Screen. Data for tumor model L1210 Leukemia (intraperitoneal) in B6D2F1 (BDF1) mice
Settings: endpoint: mean survival time, higher = longer survival
In short: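 Value reflects the ratio of survival in compound-treated mice to survival in vehicle-treated controls, with both groups carrying the same transplanted tumor.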

[1] = dose: 100.0 mg/kg/injection, schedule: Q04DX003 (ip), vehicle: Klucel (hydroxypropylcellulose) (HPC)
[2] = dose: 200.0 mg/kg/injection, schedule: Q04DX003 (ip), vehicle: Klucel (hydroxypropylcellulose) (HPC)
[3] = dose: 400.0 mg/kg/injection, schedule: Q04DX003 (ip), vehicle: Klucel (hydroxypropylcellulose) (HPC)
[4] = dose: 100.0 mg/kg/injection, schedule: Q04DX002 (ip), vehicle: Klucel (hydroxypropylcellulose) (HPC)
[5] = dose: 200.0 mg/kg/injection, schedule: Q04DX002 (ip), vehicle: Klucel (hydroxypropylcellulose) (HPC)
[6] = dose: 400.0 mg/kg/injection, schedule: Q04DX002 (ip), vehicle: Klucel (hydroxypropylcellulose) (HPC)
[7] = dose: 100.0 mg/kg/injection, schedule: Q01DX009 (ip), vehicle: saline with Tween-80
[8] = dose: 200.0 mg/kg/injection, schedule: Q01DX009 (ip), vehicle: saline with Tween-80
[9] = dose: 100.0 mg/kg/injection, schedule: Q01DX001 (ip), vehicle: saline
[10] = dose: 200.0 mg/kg/injection, schedule: Q01DX001 (ip), vehicle: saline
[11] = dose: 400.0 mg/kg/injection, schedule: Q01DX001 (ip), vehicle: saline

Measured: T/C

CCCC(=O)NC1CCC(CC2CCCCC2)CC1 (configuration not stated)
inactive: dose: 50.0 mg/kg/injection, schedule: Q01DX009 (ip), vehicle: other 92 % of control | dose: 100.0 mg/kg/injection, schedule: Q01DX009 (ip), vehicle: other 106 % of control | dose: 100.0 mg/kg/injection, schedule: Q04DX003 (ip), vehicle: other 100 % of control | dose: 200.0 mg/kg/injection, schedule: Q01DX009 (ip), vehicle: other 98 % of control | dose: 200.0 mg/kg/injection, schedule: Q04DX003 (ip), vehicle: other 100 % of control

CC(=O)OCC1=C(C(=O)O)N2C(=O)C(NC(=O)CSc3ccncc3)C2SC1 (configuration not stated)
inactive: dose: 100.0 mg/kg/injection, schedule: Q04DX002 (ip), vehicle: saline 103 % of control | dose: 200.0 mg/kg/injection, schedule: Q04DX002 (ip), vehicle: saline 114 % of control | dose: 400.0 mg/kg/injection, schedule: Q04DX002 (ip), vehicle: saline 107 % of control

OC1(Cc2nccc3ccccc23)CCN(Cc2ccccc2)CC1
inactive: dose: 100.0 mg/kg/injection, schedule: Q04DX003 (ip), vehicle: carboxymethylcellulose (CMC) 89 % of control | dose: 200.0 mg/kg/injection, schedule: Q04DX003 (ip), vehicle: carboxymethylcellulose (CMC) 98 % of control

COC(=O)Nc1ccc(C)c(NC(=O)OC)c1
inactive: [1] 104 % of control | [2] 93 % of control | [3] 107 % of control

O=S(=O)(c1ccccc1)C(Br)c1ccc(F)cc1 (configuration not stated)
inactive: [4] 97 % of control | [5] 105 % of control | [6] 101 % of control

c1cc[n+]2c(c1)-c1cccc[n+]1CCC2
inactive: dose: 100.0 mg/kg/injection, schedule: Q01DX001 (ip), vehicle: carboxymethylcellulose (CMC) 94 % of control | dose: 200.0 mg/kg/injection, schedule: Q01DX001 (ip), vehicle: carboxymethylcellulose (CMC) 101 % of control | dose: 400.0 mg/kg/injection, schedule: Q01DX001 (ip), vehicle: carboxymethylcellulose (CMC) 92 % of control

CC(C)C1CC=CCC12C(=O)NC(=O)NC2=O (configuration not stated)
inactive: dose: 75.0 mg/kg/injection, schedule: Q01DX001 (ip), vehicle: other 104 % of control | dose: 150.0 mg/kg/injection, schedule: Q01DX001 (ip), vehicle: other 97 % of control | dose: 300.0 mg/kg/injection, schedule: Q01DX001 (ip), vehicle: other 93 % of control

Nc1nc(N)c2[nH]c(CCc3ccccc3)nc2n1
inactive: dose: 25.0 mg/kg/injection, schedule: Q04DX002 (ip), vehicle: Klucel (hydroxypropylcellulose) (HPC) 95 % of control | dose: 50.0 mg/kg/injection, schedule: Q04DX002 (ip), vehicle: Klucel (hydroxypropylcellulose) (HPC) 91 % of control | [4] 98 % of control

Oc1ccccc1SSc1ccccc1O
inactive: dose: 50.0 mg/kg/injection, schedule: Q01DX009 (ip), vehicle: saline with Tween-80 100 % of control | [7] 104 % of control | [8] 103 % of control

NC1(C(=O)O)CCC(N)(C(=O)O)CC1 (configuration not stated)
inactive: dose: 75.0 mg/kg/injection, schedule: Q01DX001 (ip), vehicle: saline 110 % of control | dose: 150.0 mg/kg/injection, schedule: Q01DX001 (ip), vehicle: saline 100 % of control

OCC1SC(O)C(O)C(O)C1O (configuration not stated)
inactive: dose: 50.0 mg/kg/injection, schedule: Q01DX009 (ip), vehicle: saline 102 % of control | dose: 50.0 mg/kg/injection, schedule: Q01DX009 (oral), vehicle: saline 100 % of control | dose: 100.0 mg/kg/injection, schedule: Q01DX009 (ip), vehicle: saline 102 % of control | dose: 100.0 mg/kg/injection, schedule: Q01DX009 (oral), vehicle: saline 102 % of control | dose: 200.0 mg/kg/injection, schedule: Q01DX009 (ip), vehicle: saline 112 % of control | dose: 200.0 mg/kg/injection, schedule: Q01DX009 (oral), vehicle: saline 98 % of control | dose: 400.0 mg/kg/injection, schedule: Q01DX009 (ip), vehicle: saline 109 % of control | dose: 400.0 mg/kg/injection, schedule: Q01DX009 (oral), vehicle: saline 96 % of control

Cc1ccc(C(C)C)cc1NC(=S)Nc1ccccc1
inactive: [4] 105 % of control | [5] 111 % of control | [6] 97 % of control

C=CCNC(=O)C1C2C=CC(C2)C1C(=O)O (configuration not stated)
inactive: dose: 100.0 mg/kg/injection, schedule: Q04DX003 (ip), vehicle: saline with Tween-80 98 % of control | dose: 200.0 mg/kg/injection, schedule: Q04DX003 (ip), vehicle: saline with Tween-80 104 % of control | dose: 400.0 mg/kg/injection, schedule: Q04DX003 (ip), vehicle: saline with Tween-80 98 % of control

CSc1ccc(NC(=O)c2ccc(Cl)cc2)cc1
inactive: dose: 100.0 mg/kg/injection, schedule: Q04DX002 (ip), vehicle: saline with Tween-80 100 % of control | dose: 200.0 mg/kg/injection, schedule: Q04DX002 (ip), vehicle: saline with Tween-80 100 % of control | dose: 400.0 mg/kg/injection, schedule: Q04DX002 (ip), vehicle: saline with Tween-80 92 % of control

CC(C)(C)OC(=O)C(CSSCC(NC(=O)OCc1ccccc1)C(=O)OC(C)(C)C)NC(=O)OCc1ccccc1 (configuration not stated)
inactive: dose: 100.0 mg/kg/injection, schedule: Q01DX009 (ip), vehicle: Klucel (hydroxypropylcellulose) (HPC) 98 % of control | [1] 98 % of control | dose: 200.0 mg/kg/injection, schedule: Q01DX009 (ip), vehicle: Klucel (hydroxypropylcellulose) (HPC) 107 % of control | [2] 96 % of control | dose: 400.0 mg/kg/injection, schedule: Q01DX009 (ip), vehicle: Klucel (hydroxypropylcellulose) (HPC) 107 % of control | [3] 96 % of control

Oc1ccc(C/C=C/c2ccccc2)cc1
inactive: [7] 98 % of control | [8] 96 % of control | dose: 400.0 mg/kg/injection, schedule: Q01DX009 (ip), vehicle: saline with Tween-80 102 % of control

COC(=O)C1=C(NC(=O)Nc2ccccc2)OC(C)(C)C1c1ccc(Cl)cc1 (configuration not stated)
inactive: [9] 93 % of control | [10] 89 % of control | [11] 89 % of control

CC(C)CCCC(C)C1CCC2C3CCC4CC(O)CCC4(C)C3CCC12C (configuration not stated)
inactive: dose: 100.0 mg/kg/injection, schedule: Q01DX001 (sc), vehicle: steriod suspending solution 109 % of control | dose: 200.0 mg/kg/injection, schedule: Q01DX001 (sc), vehicle: steriod suspending solution 109 % of control | dose: 400.0 mg/kg/injection, schedule: Q01DX001 (sc), vehicle: steriod suspending solution 100 % of control

C[n+]1cccc2cc(C(=O)O)ccc21
inactive: dose: 50.0 mg/kg/injection, schedule: Q01DX009 (ip), vehicle: acetone 101 % of control | dose: 100.0 mg/kg/injection, schedule: Q01DX009 (ip), vehicle: acetone 97 % of control | dose: 200.0 mg/kg/injection, schedule: Q01DX009 (ip), vehicle: acetone 93 % of control

CCOC(=O)C1=NN(c2ccccc2)C(=O)C1N=Nc1ccc(S(=O)(=O)Nc2ncccn2)cc1 (configuration not stated)
inactive: [9] 98 % of control | [10] 96 % of control | [11] 101 % of control

c1ccc(P(CC[As](c2ccccc2)c2ccccc2)CC[As](c2ccccc2)c2ccccc2)cc1
inactive: [1] 93 % of control | [2] 93 % of control | [3] 96 % of control

COc1ccc(OC)c(C(=O)CSC(=S)OC(C)C)c1
inactive: [4] 96 % of control | [5] 92 % of control | [6] 96 % of control

CCCCCCCCCCCCCCCC[N+](C)(C)c1nc(Cl)nc(Cl)n1
inactive: dose: 3.75 mg/kg/injection, schedule: Q01DX009 (ip), vehicle: saline 102 % of control | dose: 7.5 mg/kg/injection, schedule: Q01DX009 (ip), vehicle: saline 97 % of control | dose: 15.0 mg/kg/injection, schedule: Q01DX009 (ip), vehicle: saline 96 % of control | dose: 30.0 mg/kg/injection, schedule: Q01DX009 (ip), vehicle: saline 96 % of control | dose: 37.5 mg/kg/injection, schedule: Q04DX003 (ip), vehicle: saline 102 % of control | dose: 50.0 mg/kg/injection, schedule: Q01DX001 (ip), vehicle: water 105 % of control | dose: 75.0 mg/kg/injection, schedule: Q04DX003 (ip), vehicle: saline 102 % of control | dose: 100.0 mg/kg/injection, schedule: Q01DX001 (ip), vehicle: water 100 % of control
